# Laboratory results reported in patent US20220133753A1, “COMPOSITIONS AND METHODS USEFUL FOR TREATING DISEASES CHARACTERIZED BY INSUFFICIENT PANTOTHENATE KINASE ACTIVITY” (Comet Therapeutics, Inc., priority 2016, published 2022).
# System: homozygous dCOASY mutants
# Assay: Drosophila dCOASY mutants, larval development with CoA or Vitamin B5
# Assay type: in vivo, Drosophila melanogaster
# Conditions: added to the food
# Protocol: Drosophila Maintenance and Crosses: Drosophila melanogaster stocks/crosses were raised on standard cornmeal agar fly food (containing water, agar 17 g/L, sugar 54 g/L, yeast extract 26 g/L and nipagin 1.3 g/L) at 25° C. The stocks were either obtained from the Bloomington Stock Centre (Indiana University, USA), VDRC (Vienna Drosophila RNAi Collection, Vienna, Austria) or from the Exelixis Collection (Harvard Medical School) and rebalanced to generate eGFP-positive balancers. The stocks used were: w1118; dPANK/fbl1 hypomorph5,6; dPANK/fblnull (y[1] w[*]; Mi{y[+mDint2]=MIC}fbl[MI04001]/TM3, Sb[1] Ser[1], Bloomington 36941); dPPCDC mutant (w[1118], PBac{w[+mC]=WH}Ppcdc[f00839]/CyO, Bloomington 18377); UAS-dPPCDCRNAi line (VDRC 104495); dCOASY mutant (PBac{RB}Ppat-Dpck[e00492], Exelixis). The UAS-RNAi constructs were expressed ubiquitously using the Actin-Gal4 drivers (y[1] w[*]; P{w[+mC]=Act5C-GAL4}25FO1/CyO, y[+], Bloomington 4414). Heterozygous flies/larvae for the mutants and the Actin-Gal4 driver crossed to isogenic w1118 flies (Actin-Gal4/+) were used as controls for the RNAi-constructs expressing flies.
# Drosophila Larval Collection and Larval Count Experiment: One week old flies (in the ratio 10 females and 5 males) were kept on 5 ml of standard fly food in a vial at 25° C. with or without various concentrations of CoA or Vitamin B5 (Sigma). […]
compound,measurement,value
"CC(C)(COP(=O)(O)OP(=O)(O)OC[C@H]1O[C@@H](n2cnc3c(N)ncnc32)[C@H](O)[C@@H]1OP(=O)(O)O)[C@@H](O)C(=O)NCCC(=O)NCCS [CoA, Coenzyme A]",rescue of the phenotype,did not result in a significant rescue
